Measured values as given in publication PMC10518255, “A first-in-class pan-lysyl oxidase inhibitor impairs stromal remodeling and enhances gemcitabine response and survival in pancreatic cancer” (Nature Cancer, 2023).
Values joined by “and” are separate entries in the source; they are usually repeats but may differ in a detail not shown here. Equal entries are not always repeated.

What was measured:
[1] = Rat pharmacokinetics, single dose orally (10 mg/kg) or intravenously (5 mg/kg)
[2] = system: human pancreatic cancer CAFs; test: 3D organotypic matrix contraction assay; format: cell-based; design: area of matrices: unit not given here; details: for area of matrices: single replicates
Experimental: High-purity rat tail collagen for 3D organotypic assays was acid extracted following previously published methodology. The 12-day organotypic assays were carried out as described previously. In brief, 2 × 10^5 KPC CAFs were embedded in 2.5 ml 1.5 mg ml^−1 rat tail collagen and allowed to remodel for 12 days in a six-well plate in DMEM supplemented with 10% FBS and 1% penicillin–streptomycin in 21% O2/5% CO2 (Extended Data Fig. 4a). For human pancreatic cancer CAFs, 3.45 × 10^5 cells were embedded into 1.25 ml 1.5 mg ml^−1 rat tail collagen and allowed to remodel for 12 days in a 12-well plate in IMDM supplemented with 4 mM glutamine and 10% FBS in 21% O2/5% CO2.
Extended Data Fig. 4 PXS-5505 inhibits collagen cross-linking by PDAC CAFs in vitro resulting in decreased cancer cell invasion. a. Schematic of organotypic matrix remodeling assay whereby CAFs are embedded into a 3D collagen matrix and growth media supplemented with or without PXS-5505 to inhibit lysyl oxidase family activity b. Chemical structures of lysyl oxidase family catalyzed hydroxyallysine or allysine residues and the subsequent divalent and trivalent bonds that are formed that can be quantified by mass spectrometry. c. Representative images of 3D organotypic matrix contraction by human pancreatic cancer CAFs at days 2, 6 and 12 in the absence (gray) and presence (pink) of PXS-5505 (30 µM). Scale bars = 5 mm. […] Data presented as mean values +/− SD. d. […] Data presented as mean values +/− SD. Relative fold expression of LOXL family members compared to LOX were determined by 2^–∆∆Ct approach. f. Schematic of cancer cell invasion in a 3D organotypic matrix assay whereby cancer cells are seeded to the surface of a remodeled collagen plug and placed at an air–liquid interface and allowed to invade into the remodeled matrix. […] Scale bars = 100 μm. g. […] Representative images of 3D organotypic matrix contraction assay at days 2, 6 and 12 of control (gray) and presence of PXS-5120 (blue) and PXS-5505 (pink). Scale bars = 5 mm. Comparison of measured area of matrices between control, PXS-5120 and PXS-5505 treatment groups (n = 3) over time. i. […] Representative images of invasion of KPC cancer cells into a contracted organotypic matrix as determined by H&E staining. […] Source data

[3] = system: KPC CAF remodeled 3D collagen matrices; test: Matrix stiffness by unconfined compression testing of organotypic matrices; format: cell-based, mouse; details: day 12, PXS-5505 30 µM, normalized to control, individual samples
Experimental: Fig. 3 PXS-5505 inhibition of CAF remodeling in vitro. a, Quantitative PCR with reverse transcription (qRT–PCR) showing in vitro comparison of KPC CAF relative expression of lysyl oxidase family members compared to KPC CCs from the same model (n = 3 biologically independent samples). Comparisons were determined by 2^–∆∆Ct approach. b, Representative images of 3D organotypic matrix contraction assay at days 2, 6 and 12 in the absence (gray) or presence (pink) of PXS-5505 (30 µM). Scale bars, 5 mm. Comparison of measured area of matrices between control and PXS-5505 treatment groups over time (n = 3 technical samples examined over three biologically independent samples). Data are mean ± s.d. c, Concentration of immature divalent DHLNL and mature trivalent Pyr collagen crosslinks determined by LC–MS from control and PXS-5505-treated organotypic matrices at day 12 (n = 3 technical samples examined over two biologically independent samples). Data are mean ± s.d. […] Data are presented as mean ± s.d. […] Comparison of number of CCs invaded per field of view (FOV) as determined by H&E and PanCK staining (nine images taken from three technical samples from each of three biologically independent contracted matrices), normalized to control. Data are mean ± s.d. Scale bars, 100 μm. […] Source data […]

Compound `Cl.Cl.NC/C=C(\F)CS(=O)(=O)c1cccc2cccnc12.O` [PXS-5505, (Z)-3-fluoro-4-(quinolin-8-ylsulfonyl)but-2-en-1-amine dihydrochloride monohydrate] has a Plasma concentration ([1]; 5 mg/kg iv, 0.03 hrs) of 10.145, a Plasma concentration ([1]; 5 mg/kg iv, 0.17 hrs) of 4.593 and a Plasma concentration ([1]; 5 mg/kg iv, 0.5 hrs) of 2.135. The Plasma concentration ([1]; 5 mg/kg iv, 1 hrs) was 0.7139, the Plasma concentration ([1]; 5 mg/kg iv, 2 hrs) was 0.1589 and the Plasma concentration ([1]; 5 mg/kg iv, 3 hrs) was 0.055. The Plasma concentration ([1]; 5 mg/kg iv, 5 hrs) was 0.008393, the Plasma concentration ([1]; 10 mg/kg oral, 0.25 hrs) was 2.305 and the Plasma concentration ([1]; 10 mg/kg oral, 0.5 hrs) was 3.551. For the same compound, the Plasma concentration ([1]; 10 mg/kg oral, 1 hrs) was 3.399, the Plasma concentration ([1]; 10 mg/kg oral, 2 hrs) was 0.9 and the Plasma concentration ([1]; 10 mg/kg oral, 3 hrs) was 0.198. For the same compound, the Plasma concentration ([1]; 10 mg/kg oral, 5 hrs) was 0.02554, the Plasma concentration ([1]; 10 mg/kg oral, 8 hrs) was 0.0075 and the AUC(0-t) ([1]; plasma, po, 10 mg/kg) was 1600 ng·h/mL. It also gave a Cmax ([1]; plasma, po, 10 mg/kg) of 1000 ng/mL, a Tmax ([1]; plasma, po, 10 mg/kg) of 48 min and a bioavailability ([1]; plasma, po, 10 mg/kg, Bioavailability (F)) of 75%. The half-life ([1]; plasma, po, 10 mg/kg, T1/2, rat) was 42 min, the bioavailability ([1]; plasma, po, 10 mg/kg, bioavailability, oral administration, for rodents) was > 75% and the half-life ([1]; plasma, po, 10 mg/kg, half-life, oral administration) was ~60 min. For the same compound, the matrix contraction ([2]; human pancreatic cancer CAFs, PXS-5505 30 µM) was “no effect on CAF ability to contract matrices”, the area of matrices ([2]; time 0) was 3.834 and the area of matrices ([2]; time 6) was 3 and 2.954 and 2.863 and 2.88 and 3.193 (2×) and 3.06 and 3.1 and 3.113. For the same compound, the area of matrices ([2]; time 10) was 2.446 and 2.524 and 2.482 and 2.6253 and 2.773 and 2.7357 and 2.554 (2×) and 2.298, the area of matrices ([2]; time 12) was 2.093 and 2.049 and 2.109 and 2.548 and 2.951 and 2.912 and 2.791 (2×) and 2.892 and the “matrix stiffness by unconfined compression testing” value [3] was 0.918 and 0.779 and 0.916 and 0.962 and 0.835 and 0.748 and 0.939 and 0.975.
